# Assay results published in US20240116985A1, “STAPLED PEPTIDES AND METHODS THEREOF” (priority 2020, published 2024).
# Read-outs that look alike come from different tables or passages of the source.
# Assays:
# Solubility in PBS = assay type: physicochemical
# Procedure, shortened: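 Steps: ultracentrifuge the peptide PBS solution, inject the supernatant on HPLC, inject a 50 μM peptide DMSO solution as reference, then calculate solubility as area ratio (PBS/DMSO) × 50 uM.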
# CHI Log D procedure = assay type: physicochemical; conditions: pH 7.4, CHI Log D
# [1] = target: T1, full-length beta-Catenin (Uniprot ID P35222) (Homo sapiens, UniProt P35222); assay: Fluorescence polarization IC50 (beta-catenin / 5FAM-TCF4 10-53 competition); assay type: binding; conditions: read-out: beta-Catenin FP IC50
# T1 construct: 10 nM full-length beta-Catenin (Uniprot ID P35222)
# T1 sequence (P35222 1-781): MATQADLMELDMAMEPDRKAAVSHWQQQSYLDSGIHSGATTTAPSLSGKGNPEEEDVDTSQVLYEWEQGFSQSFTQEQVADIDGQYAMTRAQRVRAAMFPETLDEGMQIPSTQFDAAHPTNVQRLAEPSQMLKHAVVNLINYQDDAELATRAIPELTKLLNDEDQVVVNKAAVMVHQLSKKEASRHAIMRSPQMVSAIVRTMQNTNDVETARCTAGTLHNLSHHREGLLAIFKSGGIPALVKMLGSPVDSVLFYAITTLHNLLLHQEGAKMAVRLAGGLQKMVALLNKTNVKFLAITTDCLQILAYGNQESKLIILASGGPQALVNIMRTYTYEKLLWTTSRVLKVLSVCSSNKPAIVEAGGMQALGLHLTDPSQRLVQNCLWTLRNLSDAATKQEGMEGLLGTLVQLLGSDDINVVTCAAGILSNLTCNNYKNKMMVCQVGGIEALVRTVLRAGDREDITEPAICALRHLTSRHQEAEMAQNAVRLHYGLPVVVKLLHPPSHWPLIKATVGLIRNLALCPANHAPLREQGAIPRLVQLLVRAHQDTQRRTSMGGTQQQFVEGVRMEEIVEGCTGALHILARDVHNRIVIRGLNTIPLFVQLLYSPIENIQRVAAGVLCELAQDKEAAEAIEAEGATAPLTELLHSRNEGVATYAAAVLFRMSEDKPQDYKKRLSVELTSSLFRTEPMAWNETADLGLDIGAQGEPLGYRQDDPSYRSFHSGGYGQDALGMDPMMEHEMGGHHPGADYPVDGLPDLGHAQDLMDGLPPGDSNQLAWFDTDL
# [2] = target: T2, beta-catenin/TCF4 engagement (Homo sapiens, UniProt P35222); assay: Nano-BRET target engagement assay (B-cat-Halo & TCF4-Luc in HEK293 cells); assay type: cell-based
# T2 construct: expressed in transfected cells; host or cells: HEK293
# T2 sequence (P35222 1-781): T1 sequence (P35222 1-781)
# [3] = absolute IC50, read-out: NanoBRET Abs IC50
compound,measurement,setting,value
"CCCCCCCC(=O)NCCCC[C@H](NC(=O)[C@H](CCC(N)=O)NC(=O)[C@H](Cc1csc2ccccc12)NC(=O)[C@H](Cc1ccsc1)NC(=O)[C@]12CCN(C1)C(=O)OCCCC=CCCCC1(CCCC=CC[C@]3(CCCN3C(C)=O)C(=O)N[C@@H](CC(=O)O)C(=O)N[C@@H](CC(C)(C)C)C(=O)N1)C(=O)N[C@@H](CC(=O)O)C(=O)N[C@@H](CC(=O)O)C(=O)N[C@@H](C)C(=O)N[C@@H](C)C(=O)N[C@@H](Cc1ccccc1)C(=O)N[C@@H](CC(N)=O)C(=O)N2)C(N)=O (stereo partly drawn) [I-918, Ac-PL3-Asp-Npg-B5-Asp-Asp-Ala-Ala-Phe-Asn-PyrS2-3Thi-BztA-Gln-[Oct]Lys-NH2]",Solubility,Solubility in PBS; Solubility (uM),44 µM
same,chromatographic logD,CHI Log D procedure,2.49
same,IC50,[1],0.033 µM
same,IC50,[2]; read-out: NanoBRET Abs IC50,11.1 µM
"CC(=O)N1CCC[C@]12CC=CCCCC1(CCCC=CCCCOC(=O)N3CC[C@@](C(=O)N[C@@H](Cc4ccsc4)C(=O)N[C@@H](Cc4csc5ccccc45)C(=O)N[C@@H](CCC(N)=O)C(=O)N[C@@H](CCCCNC(=O)C45CC6CC(CC(C6)C4)C5)C(N)=O)(C3)NC(=O)[C@H](CC(N)=O)NC(=O)[C@H](Cc3ccccc3)NC(=O)[C@H](C)NC(=O)[C@H](C)NC(=O)[C@H](CC(=O)O)NC(=O)[C@H](CC(=O)O)NC1=O)NC(=O)[C@H](CC(C)(C)C)NC(=O)[C@H](CC(=O)O)NC2=O (stereo partly drawn) [I-919, Ac-PL3-Asp-Npg-B5-Asp-Asp-Ala-Ala-Phe-Asn-PyrS2-3Thi-BztA-Gln-[AdamantC]Lys-NH2]",Solubility,Solubility in PBS; Solubility (uM),44 µM
same,chromatographic logD,CHI Log D procedure,2.55
same,IC50,[1],0.028 µM
same,IC50,[2]; read-out: NanoBRET Abs IC50,15.2 µM
"CC(=O)N1CCC[C@]12CC=CCCCC1(CCCC=CCCCOC(=O)N3CC[C@@](C(=O)N[C@@H](Cc4ccsc4)C(=O)N[C@@H](Cc4csc5ccccc45)C(=O)N[C@@H](CCC(N)=O)C(=O)N[C@@H](CCCCNC(=O)C45CC6(C)CC(C)(CC(C)(C6)C4)C5)C(N)=O)(C3)NC(=O)[C@H](CC(N)=O)NC(=O)[C@H](Cc3ccccc3)NC(=O)[C@H](C)NC(=O)[C@H](C)NC(=O)[C@H](CC(=O)O)NC(=O)[C@H](CC(=O)O)NC1=O)NC(=O)[C@H](CC(C)(C)C)NC(=O)[C@H](CC(=O)O)NC2=O (stereo partly drawn) [I-920, Ac-PL3-Asp-Npg-B5-Asp-Asp-Ala-Ala-Phe-Asn-PyrS2-3Thi-BztA-Gln-[Me3AdamantC]Lys-NH2]",Solubility,Solubility in PBS,50 µM
same,chromatographic logD,CHI Log D procedure,3.08
same,IC50,[1],0.117 µM
same,IC50,[2]; read-out: NanoBRET Abs IC50,17.7 µM
"CC(=O)N1CCC[C@]12CC=CCCCC1(CCCC=CCCCOC(=O)N3CC[C@@](C(=O)N[C@@H](Cc4ccccc4Cl)C(=O)N[C@@H](Cc4csc5ccccc45)C(=O)N[C@@H](CCC(N)=O)C(N)=O)(C3)NC(=O)[C@H](CC(N)=O)NC(=O)[C@H](Cc3ccccc3)NC(=O)[C@H](C)NC(=O)[C@H](C)NC(=O)[C@H](CN(CC(=O)O)CC(F)(F)F)NC(=O)[C@H](CC(=O)O)NC1=O)NC(=O)[C@H](CC(C)(C)C)NC(=O)[C@H](CC(=O)O)NC2=O (stereo partly drawn) [I-921, Ac-PL3-Asp-Npg-B5-Asp-TfeGA-Ala-Ala-Phe-Asn-PyrS2-2C1F-BztA-Gln-NH2]",Solubility,Solubility in PBS; Solubility (uM),24 µM
same,chromatographic logD,CHI Log D procedure,2.26
same,IC50,[1],0.008 µM
same,IC50,[2]; read-out: NanoBRET IC50,4 µM
"CC(=O)N1CCC[C@]12CC=CCCCC1(CCCC=CCCCOC(=O)N3CC[C@@](C(=O)N[C@@H](Cc4ccsc4)C(=O)N[C@@H](Cc4csc5ccccc45)C(=O)N[C@@H](CCC(N)=O)C(=O)N[C@@H](CCCCN)C(N)=O)(C3)NC(=O)[C@H](CC(N)=O)NC(=O)[C@H](Cc3ccccc3)NC(=O)[C@H](C)NC(=O)[C@H](C)NC(=O)[C@H](CC(=O)O)NC(=O)[C@H](CC(=O)O)NC1=O)NC(=O)[C@H](CC(C)(C)C)NC(=O)[C@H](CC(=O)O)NC2=O (stereo partly drawn) [I-939, Ac-PL3-Asp-Npg-B5-Asp-Asp-Ala-Ala-Phe-Asn-PyrS2-3Thi-BztA-Gln-Lys-NH2]",Solubility,Solubility in PBS; Solubility (uM),15 µM
same,chromatographic logD,CHI Log D procedure,1.79
same,IC50,[1],0.008 µM
same,IC50,[2]; read-out: NanoBRET Abs IC50,25.1 µM
same,IC50,[2]; read-out: NanoBRET IC50,18 µM
"CC(=O)N1CCC[C@]12CC=CCCCC1(CCCC=CCCCOC(=O)N3CC[C@@](C(=O)N[C@@H](Cc4ccccc4Cl)C(=O)N[C@@H](Cc4csc5ccccc45)C(=O)N[C@@H](CO)C(N)=O)(C3)NC(=O)[C@H](Cc3ccccc3)NC(=O)[C@H](Cc3ccccc3)NC(=O)[C@H](C)NC(=O)[C@H](C)NC(=O)[C@H](CN(CC(=O)O)CC(F)(F)F)NC(=O)[C@H](CC(=O)O)NC1=O)NC(=O)[C@H](CC(C)(C)C)NC(=O)[C@H](CC(=O)O)NC2=O (stereo partly drawn) [I-990, Ac-PL3-Asp-Npg-B5-Asp-TfeGA-Ala-Ala-Phe-Phe-PyrS2-2C1F-BztA-Ser-NH2]",Solubility,Solubility in PBS,10 µM
same,chromatographic logD,CHI Log D procedure,2.65
same,IC50,[1],0.041 µM
same,IC50,[2]; [3],8.8 µM
"CC(=O)N1CCC[C@]12CC=CCCCC1(CCCC=CCCCOC(=O)N3CC[C@@](C(=O)N[C@@H](Cc4ccccc4Cl)C(=O)N[C@@H](Cc4csc5ccccc45)C(=O)N[C@@H](CCC(N)=O)C(N)=O)(C3)NC(=O)[C@H](CC(N)=O)NC(=O)[C@H](Cc3ccccc3)NC(=O)[C@H](CCCCN)NC(=O)[C@H](C)NC(=O)[C@H](CN(CC(=O)O)CC(F)(F)F)NC(=O)[C@H](CC(=O)O)NC1=O)NC(=O)[C@H](CC(C)(C)C)NC(=O)[C@H](CC(=O)O)NC2=O (stereo partly drawn) [I-1006, Ac-PL3-Asp-Npg-B5-Asp-TfeGA-Ala-Lys-Phe-Asn-PyrS2-2C1F-BztA-Gln-NH2]",Solubility,Solubility in PBS; Solubility (uM),30 µM
same,chromatographic logD,CHI Log D procedure,1.7
same,IC50,[1],0.005 µM
same,IC50,[2]; [3],> 20 µM
"CC(=O)N1CCC[C@]12CC=CCCCC1(CCCC=CCCCOC(=O)N3CC[C@@](C(=O)N[C@@H](Cc4ccccc4Cl)C(=O)N[C@@H](Cc4csc5ccccc45)C(=O)N[C@@H](CCC(N)=O)C(=O)NCCCCCCN)(C3)NC(=O)[C@H](Cc3ccccc3)NC(=O)[C@H](Cc3ccccc3)NC(=O)[C@H](C)NC(=O)[C@H](C)NC(=O)[C@H](CN(CC(=O)O)CC(F)(F)F)NC(=O)[C@H](CC(=O)O)NC1=O)NC(=O)[C@H](CC(C)(C)C)NC(=O)[C@H](CC(=O)O)NC2=O (stereo partly drawn) [I-1012, Ac-PL3-Asp-Npg-B5-Asp-TfeGA-Ala-Ala-Phe-Phe-PyrS2-2C1F-BztA-Gln-6AmHex]",Solubility,Solubility in PBS,10 µM
same,chromatographic logD,CHI Log D procedure,2.61
same,IC50,[1],0.06 µM
same,IC50,[2]; read-out: NanoBRET Abs IC50,37.9 µM
"CC(=O)N1CCC[C@]12CC=CCCCC1(CCCC=CCCCOC(=O)N3CC[C@@](C(=O)N[C@@H](Cc4ccccc4Cl)C(=O)N[C@@H](Cc4csc5ccccc45)C(=O)N[C@@H](CCC(N)=O)C(N)=O)(C3)NC(=O)[C@H]([C@@H](C)O)NC(=O)[C@H](Cc3ccccc3)NC(=O)[C@H](C)NC(=O)[C@H](C)NC(=O)[C@H](CC(=O)O)NC(=O)[C@H](CC(=O)O)NC1=O)NC(=O)[C@H](CC(C)(C)C)NC(=O)[C@H](CC(=O)O)NC2=O (stereo partly drawn) [I-1013, Ac-PL3-Asp-Npg-B5-Asp-Asp-Ala-Ala-Phe-Thr-PyrS2-2C1F-BztA-Gln-NH2]",Solubility,Solubility in PBS; Solubility (uM),47 µM
same,chromatographic logD,CHI Log D procedure,2.13
same,IC50,[1],0.008 µM
same,IC50,[2]; read-out: NanoBRET Abs IC50,12.4 µM
"CC(=O)N1CCC[C@]12CC=CCCCC1(CCCC=CCCCOC(=O)N3CC[C@@](C(=O)N[C@@H](Cc4ccccc4Cl)C(=O)N[C@@H](Cc4csc5ccccc45)C(=O)N[C@@H](CCC(N)=O)C(N)=O)(C3)NC(=O)[C@H]([C@@H](C)O)NC(=O)[C@H](Cc3ccccc3)NC(=O)[C@H](C)NC(=O)[C@H](C)NC(=O)[C@H](CC(N)=O)NC(=O)[C@H](CC(=O)O)NC1=O)NC(=O)[C@H](CC(C)(C)C)NC(=O)[C@H](CC(=O)O)NC2=O (stereo partly drawn) [I-1014, Ac-PL3-Asp-Npg-B5-Asp-Asn-Ala-Ala-Phe-Thr-PyrS2-2C1F-BztA-Gln-NH2]",Solubility,Solubility in PBS,10 µM
same,chromatographic logD,CHI Log D procedure,2.38
same,IC50,[1],0.019 µM
same,IC50,[2]; read-out: NanoBRET Abs IC50,14.3 µM
